# Experimental data: a melting point compilation (Tetko et al.; mined from patent text by program, amines drawn as free bases though some values may be those of a salt)
row,SMILES,melting point
1,Cn1c(=O)nc(-c2ccccc2Cl)c2cc(Cl)sc21,164 to 166 °C
2,CNc1nc(C(C)c2ccc(-c3ccccc3)c(F)c2)c(C(=O)O)s1 (configuration not stated),133 to 134 °C
3,O=C(O)C(=O)CC(=O)c1cc(CCc2ccccc2)cn1Cc1ccc(F)cc1,135 to 137 °C
4,CC(C)N(O)C(=O)Nc1cccc(S(C)=O)c1 (configuration not stated),135 to 136 °C
5,COCc1nc(-c2ccc(C(F)(F)F)cc2)ncc1COc1ccc(OC(C)(C)C(=O)O)c(C)c1,120 to 121 °C
6,Cc1ccc(C2=C(c3ccc(S(C)(=O)=O)cc3)OC(C)(C)C2=O)cc1,167 to 168 °C
7,CCn1nc(C(=O)OC(C)C)cc(Nc2cncc3ccccc23)c1=O,192 to 193 °C
8,CCc1cccc(C)c1CNc1cc(C(=O)N(C)C)cc2c1nc(COC)n2C,154 °C
9,COc1ccc(N2CCN(CCC3OCCc4ccc(C(N)=O)cc43)CC2)cc1 (configuration not stated),178 to 180 °C
10,C[C@H]1COc2c(N3C[C@@H](N)[C@@H](C4CC4)C3)c(F)cc3c(=O)c(C(=O)O)cn1c23,218 to 220 °C
11,CC1Cc2ccc([Si](C)(C)C)c(S(N)(=O)=O)c2S1(=O)=O (configuration not stated),171 to 172 °C
12,CN(CCN1CCC(=C(c2ccccc2)c2ccccc2)CC1)c1ncccn1,98 to 100 °C
13,CCOc1cccc2cc(C(=O)NNS(=O)(=O)c3ccccc3)oc12,223 to 224 °C
14,CN(C)CCc1ccc(O)c2[nH]nnc12,207 to 211 °C
15,OCCNc1ncc(CN2CCN(c3ccccc3)CC2)c2nc(-c3ccco3)nn12,169 °C
16,CCCCCCC(=O)c1cn(CCCC(=O)O)c2ccccc12,58 to 60 °C
17,Cc1ccc2c(c1)-c1nn(-c3ccc(Cl)cc3)c(=O)cc1CS2,200 to 206 °C
18,COc1cc(OC)cc(N2CCN(C(=O)N(CC3CC3)c3cc4ccccc4nc3OC)CC2)c1,118 to 120 °C
19,Nc1nc2ccc(S(=O)(=O)n3c(CCCC(=O)O)cc4cc(Cl)ccc43)cc2s1,155 to 162 °C
20,CCCNC(C=Cc1ccccc1Cl)=NC#N,134 to 136 °C
21,CCCc1nc2ccnn2c(O)c1Cc1ccc(-c2ccccc2C(N)=O)cc1,264 °C
22,O=C1CCC(N2Cc3c(OCc4ccc(CN5CCN(C(=O)C(F)(F)F)CC5)cc4)cccc3C2=O)C(=O)N1 (configuration not stated),125 to 127 °C
23,O=C(O)CCC(=O)c1ccc(NC(=O)c2ccccc2F)cc1,191 to 193 °C
24,O=C(O)CN(CC(=O)O)CC(=O)Nc1c(F)c(F)c(F)c(F)c1F,182 to 183 °C

row,SMILES,melting point
1,CCCCCCCCC(=O)N(C)O,29 °C
2,CC(=O)N(O)Cc1ccccc1Nc1c(Cl)cccc1Cl,165 to 171 °C
3,CC(C)(C)S(=O)(=O)c1ccc(C(=O)O)c(Cl)c1,181 to 182 °C
4,CCOC(=O)c1[nH]c(C)c(C)c1O,111 to 113 °C
5,CS(=O)(=O)c1ccc(-c2cc(C(=O)CCCO[N+](=O)[O-])nn2-c2ccc(Cl)cc2)cc1,131 to 132 °C
6,Cn1cc(O)c(=O)c2ccc(C#N)cc21,305 °C
7,CCCOc1ccc(S(=O)(=O)N2CC[C@@H](N(C)C)C2)cc1-c1nc2cc3ncn(Cc4ccc(F)cc4)c3cc2c(=O)[nH]1,223 to 225 °C
8,CCOC(=O)/C=C/c1cn(C)c2ccccc12,94 to 98 °C
9,CC(Cn1ncnn1)n1nnc2cc3c(=O)n(CC#N)nnc3cc2c1=O (configuration not stated),209 to 212 °C
10,COC(=O)c1ccc(CCNC(=O)C[C@H]2O[C@H](c3cccc(OC)c3OC)c3cc(Cl)ccc3N(CC(C)(C)CO)C2=O)cc1,167 to 169 °C
11,"CN1C(=O)CCC2(C)c3ccc(Sc4ccc5ccccc5n4)cc3CCC12 (single isomer, unassigned; (+))",175 to 177 °C
12,CCOC(=O)c1c(=O)c2c(F)c(F)c(F)c(F)c2n2ccccc12,198 to 200 °C
13,COCC(C)N(C(=O)CCl)c1c(C)cccc1C (configuration not stated),44 to 46 °C
14,CNC(=O)c1ccc(N2CCN(Cc3cnc4c(c3)[nH]c(=O)n3cccc43)CC2)c(C)c1,264 to 266 °C
15,Cc1nc2c(cc1C#CCO)c(=O)c(C(=O)NCc1ccc(Cl)cc1)cn2C,217 to 218 °C
16,O=C(O)CCCC12CCC(=O)N1C(=O)CC2,178 to 180 °C
17,CSc1c(C(=O)NN=Cc2ccc(Cl)cc2)[nH]c2ccccc12,232 to 235 °C
18,CCOC(=O)c1cn(-c2ccc(F)cc2)c2cc(F)c(F)c(C)c2c1=O,256 to 259 °C
19,CCOc1nc2cccc(C(=O)O)c2n1Cc1ccc(-c2ccccc2-c2nnnn2C(c2ccccc2)(c2ccccc2)c2ccccc2)cc1,168 to 170 °C
20,O=C1SCCN1Cc1ccccc1[N+](=O)[O-],92 to 93 °C
21,COc1nc(N)nc(SC(F)F)n1,146 to 150 °C
22,Oc1cc(=S)sc2cccc(C(F)(F)F)c12,142 to 144 °C
23,COc1ccc(-n2cnc3c(OC)nc4ccccc4c32)cc1,180 to 182 °C
24,CCCCNc1nc(C=O)c(C#N)cc1C(=O)OCC,81 to 83 °C

row,SMILES,melting point
1,CCn1c(=O)c2[nH]c(C(C)C)nc2n(Cc2ccc3c(c2)OCO3)c1=O,200 to 232 °C
2,SCC1CSC2(SCCS2)S1 (configuration not stated),79 to 80.5 °C
3,CCCCN(Cc1ccc(-c2ccccc2-c2nc(=O)o[nH]2)cc1)c1ncccc1C(=O)O,95 to 98 °C
4,Nc1cc(Sc2cccc3cnccc23)c(F)cc1[N+](=O)[O-],217 to 220 °C
5,CCCCCCCCCCCCCCOC(=O)CCC(=O)O,48 to 49 °C
6,Cc1cc2[nH]c(=O)c(=O)[nH]c2cc1C,> 250 °C
7,CNc1nc2ccccc2n2cnnc12,> 300 °C
8,C#Cc1cn(C2CC(O)C(CO)O2)c(=O)nc1N (configuration not stated),162 to 165 °C
9,O=C(OCc1ccccc1)N1CCN(CCN2C(=O)c3ccccc3C2=O)CC1,89.5 to 90.5 °C
10,COC(=O)C1=C(C)NC(c2ncsc2Cl)=NC1c1ccc(F)cc1Cl (configuration not stated),98 to 100 °C
11,O=C(c1ccccc1)N1CCc2[nH]c3cc(-c4ccccc4)ccc3c2CC1,213 to 232 °C
12,CC(C)c1nc(C(C)C)c(CN2CCOCC2)c(-c2ccc(F)cc2)c1CO,93.5 to 95.5 °C
13,CS(=O)(=O)NC(=O)c1ccc(OCCn2ccnc2)cc1,198 to 199 °C
14,O=C(O)c1nc(SC2CCCCC2)ccc1SC1CCCCC1,100 to 101 °C
15,CC(=NNC(=O)c1ccccc1)c1sc(C)nc1C,138 °C
16,COc1cccc(C2=CCN(C(=O)CSCc3c[nH]c4ccccc34)CC2)c1,115 to 117 °C
17,OC(=S)CCc1ccccc1,60 °C
18,CC(=O)N1CC(C)(C)c2cc3nc(-c4ccnnc4)[nH]c3cc21,225 to 260 °C
19,CCOC(=O)Cn1c2cccccc-2c(C#N)c1=O,149 to 151 °C
20,O=CN(O)C(Cc1cccc(CC(=O)O)c1)CS(=O)(=O)c1ccc(Oc2ccc(OC(F)(F)F)cc2)cc1 (configuration not stated),138 to 140 °C
21,CCCN(CCCCNc1ncc(CC2CCCCC2)c(=O)[nH]1)c1ccccn1,62 to 64 °C
22,Cc1cc(Oc2ccc(C(F)(F)F)cc2[N+](=O)[O-])nn1C(=O)NC(C)(C)C,104 to 106 °C
23,Nc1ncnc2c1c(-c1cccc(O)c1)cn2-c1cccc(OCCCn2ccnc2)c1,120 to 122 °C
24,COC(=O)Cc1ccc(C(=O)OC)cn1,56 to 57 °C
